Reference: ChEMBL document CHEMBL3507680, “University of Dundee, Gates Library screen for HepG2 cell viability”

Assay: Human HepG2 cell viability assay in 384 well format
Assay type: toxicity, cell-based
Parameters: dose 125 nL, time 70.5 hour; cytotoxicity at 70.5 h: concentration not given beside the values
Settings: HepG2 cells, read-out: Inhibition

Compound | cytotoxicity at 70.5 h [%]
CC(=O)Nc1nc(C(=O)N2CCC(Nc3cccnn3)CC2)cs1 | -2.92
Cc1cc(C(F)(F)F)nn1CC(C)C(=O)NC(C)C (configuration not stated) | 19.9
CN(Cc1ccccc1-n1cccn1)c1nc(N)nc2c1CCNCC2 | 4.77
Cc1cscc1C(=O)N1CCCC1CC(=O)c1cnn(C)c1 (configuration not stated) | -5.58
COCc1ncc(CN2CCC3(CCC(=O)N(CC(C)O)C3)CC2)cn1 (configuration not stated) | -9.93
Cc1[nH]nc(CCC(=O)N2CCc3c(nc[nH]c3=O)C2)c1C | -15.9
CC1(C)CC(N(Cc2cccnc2)Cc2cccnc2)CC(C)(C)N1 | -1.63
Cc1cc(-c2cnc(N3CCNC(=O)C3)nc2-c2ccc(C)o2)on1 | -16.3
Cc1ccc(N(C)CC(O)COCc2ccccc2F)c(C)c1 (configuration not stated) | -0.728
O=C(NC1COC2(CCN(Cc3cccs3)CC2)C1)c1ccccn1 (configuration not stated) | -2.35
Cn1nc(C2CCCN(Cc3ccc(F)cc3F)C2)c2nccnc21 (configuration not stated) | 0.45
COC(=O)CC1CN(Cc2c(Cl)ccc3cccnc23)CCO1 (configuration not stated) | -12.3
Cc1ccc(CN2CCCn3nnc(COCCN(C)C)c3C2)s1 | -16
CC(C)CNC(=O)c1[nH]nc(C2CC2)c1Br | -4.78
CN(C)c1nccc(C2CN(c3cnccn3)CCO2)n1 (configuration not stated) | 13.3
CS(=O)(=O)CCC(=O)N1CCC(c2cccc(F)c2)C1 (configuration not stated) | 5.28
CCN(c1ccc(C(=O)N2CCCCC2)cc1)S(=O)(=O)CC | -9.5
Cc1nnc(N2CC[C@H]3C[C@@H](C(=O)N4CCCC4)O[C@H]3C2)s1 | 12.6
CCc1ccc(CN2C[C@@H](C)C3(CCN(CC(=O)N(C)C)C3=O)C2)o1 (some centres not stated) | -6.86
CCc1noc(C)c1C(=O)N1CCN(c2nc(C)cc(OC)n2)CC1 | 5.53
CC(C)(C)CC(=O)Nc1ncn(CC(=O)NCc2ccccc2)n1 | 25.6
Cc1ncsc1C(=O)N1CCCC(c2nccn2Cc2cscn2)C1 (configuration not stated) | -5.99
COCCN(CC1CC1)c1nc(CCN)nc2sc(C)c(C)c12 | 26.7

Compound | cytotoxicity at 70.5 h [%]
CCc1ccc(S(=O)(=O)Nc2cc(C(=O)O)c(F)cc2F)s1 | 26.3
CC(C)S(=O)(=O)c1nnc(CCNC(=O)OC(C)(C)C)o1 | 29.5
Cc1ccnc(OC[C@@]23CCO[C@@H]2CCN(c2ncc(F)cn2)C3)n1 | -6.92
Cc1cc(C)n(-c2cncc(NCCNC(=O)C3CCCC3)n2)n1 | -9.3
Cc1cnn(CC2CCCCN2C(=O)Cc2c(C)noc2C)c1 (configuration not stated) | -9.25
Cc1ccc(CN2C(=O)CC[C@]23CC[C@@H](NCC2CCOC2)CC3)cc1 (some centres not stated) | 18.5
Cc1nc(C(C)(C)NC(=O)Nc2cccc(C#N)c2)no1 | -2.69
Cc1cc(Nc2ccc(F)cn2)cc(C2CCN(Cc3ncc[nH]3)C2)n1 (configuration not stated) | -0.353
COCCNc1nc2c(c(NCc3cnc(C)cn3)n1)CCNCC2 | -4.71
Cc1csc(CN(CC2CCCO2)C(=O)c2cccnc2C)n1 (configuration not stated) | -6.56
CCCn1cc(CN2CCC(c3[nH]ncc3S(C)(=O)=O)C2)cn1 (configuration not stated) | -7.48
O=S(=O)(C1CC1)N1CCC2(CN(c3ncccn3)C2)C1 | 9.33
CN(CCOc1cccc(S(C)(=O)=O)c1)CC(F)F | -10.4
CN(Cc1ccccn1)C(=O)c1cc(CN2CCC(O)CC2)on1 | -16.8
COCC1COCCC12CCN(S(=O)(=O)c1ccccc1)CC2 (configuration not stated) | 0.595
CC(C)c1nn(C)c(N(C)C)c1CNCc1ccc(N(C)C)nc1 | 3.68
Cc1nnc2n1CCN(CC(=O)N1CCc3ccccc3C1)C2 | 49.9
CC(C)OCc1noc(C2CCOC2)n1 (configuration not stated) | -9.31
CN(Cc1nc(C2CC2)no1)C(=O)C1COc2ccccc2C1 (configuration not stated) | -0.624
CCc1n[nH]c(C(=O)NCCn2ccnc2C)c1C | -5.75
CCn1ccnc1CN1CCCC1C(=O)Nc1nccs1 (configuration not stated) | -5.23
CC1(C)CN(S(=O)(=O)N2CCCC2)CC1c1ccccc1 (configuration not stated) | -6.08
Cn1c(NC(=O)CCS(=O)(=O)C2CCCC2)nc2cc(Cl)ccc21 | -9.03

Compound | cytotoxicity at 70.5 h [%]
CCC(=O)N1CCN(C(=O)c2ccc(COC)o2)[C@H]2CS(=O)(=O)C[C@H]21 | -5.66
Cn1c(N2CCOCC2)nc2cc(C(=O)NCC(F)(F)F)ccc21 | -9.13
CC(C)c1cc(CNC(=O)NCc2cccc(N3CC=CC3)c2)on1 | -3.2
COC1CCN(C(=O)CCc2c(C)nc3ccnn3c2C)CC1 | -0.665
Cn1ccnc1CN1CCN(CC(O)c2ccc(F)c(F)c2)CC1 (configuration not stated) | 13.5
CC(C)c1nc(CN(C)C(=O)c2ccc3c(c2)OCO3)cs1 | -9.84
c1ccc(-c2nnn3c2COC(CNCc2ccccn2)C3)cc1 (configuration not stated) | -5.4
NC(=O)CN1CCC(c2noc3cc(F)ccc23)CC1 | 39.4
NC(=O)NCC(=O)N1C[C@H]2CC[C@@H]1CN(Cc1ccccc1)C2 | 1.42
CN1[C@H](CN2CCCC2)C[C@@H]2CN(C(=O)c3cnccn3)CC[C@@H]21 | -4.55
COCCNC(=O)[C@@H]1CCO[C@@H]2CCN(c3ccc(C)nn3)C[C@@H]21 | -15.8
Nc1nc2c(c(NC(Cn3cccn3)c3ccccc3)n1)CCNCC2 (configuration not stated) | 0.802
Cc1ccc(OCC(=O)Nc2cnccc2SCCCO)cc1C | 9.63
Cc1ccccc1CN1CCC2(CCCN2C(=O)C(C)C)CC1 | 32.8
CN(C)C(=O)N1CCC(c2nc3ccc(-c4ccccc4)cn3n2)CC1 | -4.01
Cc1noc([C@@H]2C[C@H]3OCC[C@H]3N(Cc3ccoc3)C2)n1 | -6.19
COc1cc(N2CCC3(CCCN3Cc3ccn(C)n3)CC2)ncn1 | -3.28
O=C(N[C@@H]1CN(c2ncc(F)cn2)[C@@H]2COC[C@@H]21)c1cscn1 | -13.8
CC(=O)N1N=C(c2ccccc2)OC1C(=O)NCCN(C(C)C)C(C)C (configuration not stated) | -6.17
O=C1CCC2(CCCN(CCc3ccccc3)C2)N1Cc1cccnc1 (configuration not stated) | -25
Cc1cc(NC(=O)N2CCN(C)CC2C)n(CCC#N)n1 (configuration not stated) | 18.4
COc1cccc(CN(C)C(=O)CCC(=O)c2ccc(Cl)cc2)c1OC | -10.4
CCn1nc(C)cc1NC(=O)CCn1nc(C)c(Br)c1C | 10.2

Compound | cytotoxicity at 70.5 h [%]
CCc1cnc(N2C[C@H]3C[C@H](C(=O)NC4CCC4)[C@@H](C2)O3)nc1 | -1.31
CCc1nccn1C1CCCN(C(=O)c2ccn(-c3ccccc3)n2)C1 (configuration not stated) | -1.19
Cc1nc(CN2CCCC(NCCOc3cccc(C#N)c3)C2)no1 (configuration not stated) | -2.71
N#Cc1ccc(N2CCCN(CC(=O)N3CCC3)CC2)cc1 | -2.99
O=C(NCc1ccnc(O)c1)NCC1CCCC1 | -1.59
Cn1ccnc1CN1CCC(Cn2cc(-c3ccncc3)nn2)CC1 | 3.24
c1cnc(NC[C@@H]2CCC[C@@H]3CN(Cc4cccnc4)C[C@@H]32)nc1 | -2.09
CC(=O)N1CCCC(c2ccc(N3CCN(C)CC3)cn2)C1 (configuration not stated) | -3.54
CN(C)c1nccnc1C1CCCN(c2cnccn2)C1 (configuration not stated) | -3.09
O=S(=O)(Cc1ccccc1)NCC1CCN(c2cnccn2)CC1 | 4.32
NC(=O)N1CCCC(C(=O)NCCOc2ccc(F)cc2F)C1 (configuration not stated) | 0.645
CSc1ccc(C2CC(=O)Nc3c2c(=O)[nH]c2ncnn32)cc1 (configuration not stated) | 6.12
Cc1cc(CC(=O)N(C)Cc2cccc(OC(C)C)c2)n[nH]1 | -9.38
Cc1cc(C2CCC2)nc(N(C)Cc2cnccn2)n1 | -6.23
CC(O)CC(C)(C)CNC(=O)Nc1cnn(-c2ccccc2F)c1 (configuration not stated) | -4.35
Cc1nc(C)n(CC2CN(CCCOc3ccc(F)cc3)CCO2)n1 (configuration not stated) | -17.9
COc1ccc2c(c1)CC(NCc1cccc(CO)c1)CC2 (configuration not stated) | -6.72
CC1(C)CC(=O)c2cnc3nc(N4CCCCC4)nc(O)c3c2C1 | -11
Cc1ccc(C2CSCCN2CC(=O)N2CCOCC2)cc1 (configuration not stated) | -5.8
Cn1ncc(N2CCOC(CCNC(=O)N3CCCCC3)C2)cc1=O (configuration not stated) | -6.9
NC(=O)c1ccnc(N2CCCC(CO)(Cc3ccccc3)C2)c1 (configuration not stated) | -5.88
Cn1nc(C(=O)NCCc2ccc(OC3CCCC3)cc2)ccc1=O | 12.1
Cc1cc(C2CCCN(C(=O)CN3CCN(C)CC3)C2)n[nH]1 (configuration not stated) | -11.8

Compound | cytotoxicity at 70.5 h [%]
CCc1c(O)nc2nc(N3CCOCC3)nn2c1C | -11
Cc1cc(N(C)CCCn2cccn2)nc(-c2cccnc2)n1 | 11.2
COC(=O)Cn1c(=O)nc2n1C(=O)N(c1ccc(Cl)cc1)C2 | 8.74
CCNc1nnc(CCn2nc(C)c(Br)c2C)s1 | -7.99
O=S(=O)(NC[C@H]1C[C@@H]2CCN1C[C@@H]2CN1CCCCC1)c1ccccc1 | -6.11
O=C(NCc1cc(Br)cs1)Nc1cn[nH]c1 | -23.7
CCN(CC)S(=O)(=O)CC(=O)N1CCc2ccc(Cl)cc21 | -1.78
CNC(=O)C1CCCCN1C(=O)C1CCN(S(C)(=O)=O)CC1 (configuration not stated) | -11.7
COc1ccc(S(N)(=O)=O)cc1C(=O)N(C)Cc1cc(C)on1 | 24.6
COC(=O)CC(c1ccc(OC)c(O)c1)c1oc(C)cc(=O)c1O (configuration not stated) | -2.8
Cc1cc(C)c(CNC(=O)NCc2ccc3c(c2)OCCO3)c(=O)[nH]1 | 0.304
CCS(=O)(=O)N1CCC2(CC(=O)N(c3ccc4c(c3)OCO4)C2)C1 (configuration not stated) | 7.63
C=C(C)CN(CC)C(=O)Nc1ccccc1CN(C)C(C)=O | -12.6
Cc1ccsc1CNc1ccccc1C(=O)N1CCNC(=O)C1 | 16.9
CCOCC1CN(C(=O)c2cccn2C)Cc2cnn(CC3CC3)c21 (configuration not stated) | 0.525
CN(C)c1ncccc1CNC(=O)NCc1ccc(Cl)s1 | -10.4
O=C(CCn1nc(-c2cccs2)oc1=O)Nc1cccc(F)c1 | -6.28
O=C(Nc1cc(C(F)(F)F)ccc1Cl)c1ccc(N2CCOCC2)nn1 | -0.689
O=C(c1ccc2nncn2c1)N1CCCCC1Cn1cccn1 (configuration not stated) | 8.64
COc1ccc(OCCN2CCC(c3ccnn3CCO)CC2)cc1 | -5.41
